The values that follow come from PubChem BioAssay (NCI).

SMILES strings stand for the structures.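 Five concentrations, 48 hours, 96-well plates. GI50 is the concentration that inhibits growth by half. TGI: concentration producing complete growth inhibition.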 Where only a bound is given, the exact number is not on record here.

Among the test systems are M14 melanoma; PC-3 prostate; HT29 colon; CCRF-CEM leukemia; NCI/ADR-RES ovarian; IGROV1 ovarian; T-47D breast; BT-549 breast; HL-60(TB) leukemia; SK-MEL-5 melanoma.
Holding throughout (test): NCI anticancer screen, dose series, 48 h

For the compound `O=C(N/N=C(/COc1ccc(Cl)cc1)N=Cc1cccnc1)c1ccncc1`, the TGI in the test with M14 melanoma, in the test on PC-3 prostate, with HT29 colon, with CCRF-CEM leukemia, in the test with NCI/ADR-RES ovarian and in the test with IGROV1 ovarian was over 100 µM throughout. Besides, the TGI with T-47D breast, with BT-549 breast and in the test with HL-60(TB) leukemia was over 100 µM throughout.

Regarding `C#CCn1ncc2c(SC)ncnc21`, the TGI in the test on SK-MEL-5 melanoma, in the test with M14 melanoma, in the test with PC-3 prostate, with HT29 colon, with CCRF-CEM leukemia and in the test on NCI/ADR-RES ovarian was over 100 µM in each case. For the same compound, the TGI in the test with IGROV1 ovarian, in the test on T-47D breast and with BT-549 breast was over 100 µM each time.

For `OC1(c2ccc(Cl)cc2)c2c(ccc3c2OCO3)C2=NCCN21` (stereo unspecified), the TGI in the test on SK-MEL-5 melanoma is 32.1 µM; in the test on M14 melanoma, 30.8 µM; in the test on PC-3 prostate, over 100 µM; with HT29 colon it was 91.5 µM; in the test with CCRF-CEM leukemia it was over 100 µM; in the test with NCI/ADR-RES ovarian, over 100 µM. Moreover, the TGI was 54.9 µM in the test with IGROV1 ovarian, over 100 µM in the test with T-47D breast, over 100 µM with BT-549 breast and over 100 µM in the test with HL-60(TB) leukemia.

As to `Cn1c(-c2cccs2)cc(-c2ccccc2)c1-c1cccs1`, the TGI with SK-MEL-5 melanoma, in the test on M14 melanoma, in the test on PC-3 prostate, in the test with HT29 colon, in the test with CCRF-CEM leukemia and in the test with NCI/ADR-RES ovarian was over 100 µM each time. The TGI in the test with IGROV1 ovarian, in the test on T-47D breast, in the test with BT-549 breast and with HL-60(TB) leukemia was over 100 µM in each case.

With `O=C1N(c2ccccc2)C2(c3ccccc3)CC3CCCC13S2` (stereo unspecified), the TGI in the test with SK-MEL-5 melanoma was over 100 µM; in the test on M14 melanoma, over 100 µM; in the test on PC-3 prostate it was 90.3 µM; in the test with HT29 colon, over 100 µM; in the test with CCRF-CEM leukemia it was over 100 µM; in the test on NCI/ADR-RES ovarian it was over 100 µM. The TGI with IGROV1 ovarian was over 100 µM; in the test on T-47D breast, over 100 µM; in the test on BT-549 breast, over 100 µM; with HL-60(TB) leukemia, 61.3 µM.

With `O=C(C=P(c1ccccc1)(c1ccccc1)c1ccccc1)c1cccc(-c2cccc([N+](=O)[O-])c2)c1`, the TGI in the test on SK-MEL-5 melanoma was 5.93 µM; with M14 melanoma, over 100 µM; in the test on PC-3 prostate, 20.9 µM; in the test on HT29 colon, 4.17 µM; in the test on CCRF-CEM leukemia it was 7.63 µM; in the test on NCI/ADR-RES ovarian it was over 100 µM. The TGI with IGROV1 ovarian is 38.4 µM; in the test on T-47D breast, over 100 µM; with BT-549 breast it was over 100 µM; in the test with HL-60(TB) leukemia, 4.82 µM.

`COc1ccc2c(c1)CCN=C2Cc1cc(OC)c(OC)cc1CCCl`: the TGI in the test on SK-MEL-5 melanoma is 58.9 µM; in the test with M14 melanoma, over 100 µM; in the test with PC-3 prostate, over 100 µM; in the test on HT29 colon, over 100 µM; in the test with CCRF-CEM leukemia it was over 100 µM; with NCI/ADR-RES ovarian, over 100 µM. The TGI in the test on IGROV1 ovarian, in the test with T-47D breast and with BT-549 breast was over 100 µM each time.

In the case of `O=Cc1cc([N+](=O)[O-])no1`, the TGI in the test with SK-MEL-5 melanoma is 36.6 µM; in the test with M14 melanoma it was 35.6 µM; in the test with PC-3 prostate, over 100 µM; in the test on HT29 colon it was 61.6 µM; with CCRF-CEM leukemia, over 100 µM; in the test with NCI/ADR-RES ovarian, over 100 µM. The TGI with IGROV1 ovarian, in the test on T-47D breast, in the test on BT-549 breast and with HL-60(TB) leukemia was over 100 µM each time.

Take `N/C(=N\S(=O)(=O)c1cccc2nsnc12)Nc1ccc(Cl)cc1`: the TGI in the test on SK-MEL-5 melanoma is 31.2 µM; in the test with M14 melanoma it was over 100 µM; with PC-3 prostate it was 55 µM; in the test with HT29 colon it was over 100 µM; in the test on NCI/ADR-RES ovarian it was over 100 µM; in the test on IGROV1 ovarian, over 100 µM. Further, the figures for the TGI in the test on T-47D breast, in the test on BT-549 breast and in the test on HL-60(TB) leukemia were over 100 µM, over 100 µM and 78 µM, respectively.

Regarding `COC(=O)c1cc2c3c(cc(N(C)C)c2[nH]1)N(C(=O)c1cc2cc(OC)c(OC)c(OC)c2[nH]1)CC3CCl` (stereo unspecified), the TGI in the test on SK-MEL-5 melanoma is 0.00591 µM; in the test on M14 melanoma, 0.00848 µM; in the test on PC-3 prostate it was 25 µM; with HT29 colon it was over 25 µM; in the test on CCRF-CEM leukemia it was 0.0538 µM; in the test on NCI/ADR-RES ovarian, 0.0548 µM. Moreover, the TGI in the test on T-47D breast amounted to 0.642 µM; in the test on BT-549 breast it was 0.193 µM.

In the case of `CCOC(=O)C[C@@H]1C2(C=C[C@@]13CO3)OCC(C)(C)CO2`, the TGI with SK-MEL-5 melanoma, in the test with M14 melanoma, with PC-3 prostate, in the test with HT29 colon, with CCRF-CEM leukemia and in the test with NCI/ADR-RES ovarian was over 100 µM throughout. In addition, the TGI in the test on IGROV1 ovarian, with T-47D breast, with BT-549 breast and in the test on HL-60(TB) leukemia was over 100 µM each time.

With `CS(=O)(=O)OC1CN2CCC1CC2` (stereo unspecified), the TGI with SK-MEL-5 melanoma, in the test on M14 melanoma, in the test on PC-3 prostate, in the test with HT29 colon, with CCRF-CEM leukemia and with NCI/ADR-RES ovarian was over 100 µM in each case. The TGI in the test with IGROV1 ovarian, with T-47D breast, with BT-549 breast and in the test on HL-60(TB) leukemia was over 100 µM each time.

`CN(c1cc2ncc(=O)[nH]c2cc1NC(N)=NCc1ccc(Cl)cc1)C1CCCCC1`: the GI50 is 8.18 µM in the test on SK-MEL-5 melanoma; 7.36 µM in the test on M14 melanoma; 5.94 µM with PC-3 prostate; 5.03 µM in the test with HT29 colon; 6.33 µM in the test with CCRF-CEM leukemia; 23.1 µM in the test with NCI/ADR-RES ovarian. The GI50 is 6.93 µM in the test on IGROV1 ovarian, 5.82 µM in the test on T-47D breast, 7.4 µM with BT-549 breast and 5.36 µM with HL-60(TB) leukemia. Moreover, the TGI worked out at 15.3 µM in the test on SK-MEL-5 melanoma; 14.9 µM in the test on M14 melanoma; 12.5 µM in the test with PC-3 prostate; 14.1 µM with HT29 colon; 15.6 µM in the test with CCRF-CEM leukemia; 50 µM in the test with NCI/ADR-RES ovarian. Moreover, the TGI in the test on IGROV1 ovarian was 15 µM; in the test with T-47D breast, 17 µM; in the test on BT-549 breast it was 14.6 µM; in the test on HL-60(TB) leukemia, 12.7 µM.

`Nc1cc2c(nnn2C2OC(COCc3ccccc3)C(OCc3ccccc3)C2OCc2ccccc2)c(=O)[nH]1` (stereo unspecified): the TGI in the test with SK-MEL-5 melanoma was 19.9 µM; with M14 melanoma it was 64.4 µM; with PC-3 prostate it was over 100 µM; in the test on HT29 colon, 41.8 µM; in the test with CCRF-CEM leukemia it was over 100 µM; with NCI/ADR-RES ovarian it was over 100 µM. Also, the TGI is over 100 µM in the test with IGROV1 ovarian, over 100 µM with T-47D breast, 90.3 µM with BT-549 breast and 28.1 µM in the test with HL-60(TB) leukemia.

Consider `C/C(=C\c1ccccc1)C(=O)NCc1ccc(C(=O)NCCC(C)C)cc1`, for which the TGI in the test on SK-MEL-5 melanoma, with M14 melanoma, in the test with PC-3 prostate, with HT29 colon, in the test with CCRF-CEM leukemia and in the test with NCI/ADR-RES ovarian was over 100 µM each time. Besides, the TGI in the test with IGROV1 ovarian, in the test on T-47D breast and in the test on BT-549 breast was over 100 µM each time.

For `O=C(C[C@H](NC(=O)OCc1ccccc1)C(=O)NC1Cc2ccccc2OC1=O)OCc1ccccc1` (stereo partly specified), the TGI in the test on SK-MEL-5 melanoma is over 100 µM; in the test on M14 melanoma it was over 100 µM; in the test with PC-3 prostate it was 70.2 µM; with CCRF-CEM leukemia, over 100 µM; in the test with NCI/ADR-RES ovarian, over 100 µM; with IGROV1 ovarian, over 100 µM. The TGI with T-47D breast and in the test with BT-549 breast was over 100 µM each time.

With `CCN(CC)CCCC(C)Nc1ccnc2cc3ccccc3cc12` (stereo unspecified), the TGI in the test on SK-MEL-5 melanoma is 37.1 µM; with M14 melanoma, over 100 µM; in the test with PC-3 prostate it was over 100 µM; in the test with CCRF-CEM leukemia it was over 100 µM; in the test on NCI/ADR-RES ovarian, over 100 µM; with IGROV1 ovarian it was 50.7 µM. Further, the TGI in the test on T-47D breast was determined as 89.7 µM; with BT-549 breast it was 29.2 µM; with HL-60(TB) leukemia, 75.9 µM.

On to `O=C(O)c1cc(=O)[nH]c(SCc2ccccc2)n1`, for which the TGI with SK-MEL-5 melanoma, in the test with M14 melanoma, with PC-3 prostate, in the test with HT29 colon, with NCI/ADR-RES ovarian and in the test with IGROV1 ovarian was over 100 µM each time. Besides, the TGI in the test with T-47D breast, with BT-549 breast and in the test with HL-60(TB) leukemia was over 100 µM in each case.

As to `CC(=O)Nc1ccc(N=C2C(c3ccccc3)=C(SC3=C(c4ccccc4)C(=Nc4ccc(NC(C)=O)cc4)c4ccccc43)c3ccccc32)cc1`, the TGI in the test with SK-MEL-5 melanoma was 31.3 µM; in the test on M14 melanoma, over 100 µM; in the test on PC-3 prostate, over 100 µM; in the test on HT29 colon it was over 100 µM; in the test with CCRF-CEM leukemia, over 100 µM; with NCI/ADR-RES ovarian it was 72.9 µM. The TGI in the test on IGROV1 ovarian is over 100 µM; with T-47D breast, 48.4 µM; in the test on BT-549 breast it was 73.1 µM.

`N#Cc1c(NC(=S)Nc2ccc(Cl)cc2)sc2c1CCCC2`: the TGI in the test on SK-MEL-5 melanoma, in the test on PC-3 prostate, in the test with HT29 colon, in the test on NCI/ADR-RES ovarian, in the test with IGROV1 ovarian and in the test on T-47D breast was over 100 µM in each case. Besides, the TGI in the test with BT-549 breast and in the test on HL-60(TB) leukemia was over 100 µM throughout.
